From patent publication US20050026847A1, “Methods for treating, preventing, or inhibiting injuries, cell membrane stabilization, and calcium mobilization using pseudopterosin compounds” (priority 2003, published 2005)

How the values were obtained:
T. thermophila = assay: Phagocytosis activity assay (India ink phagosome formation); assay type: cell-based, Tetrahymena thermophila; conditions: for effect on rate of phagosome formation / phagocytic activity: 10 minutes drug/ink exposure, FIGS. 2-4; for effect of Pertussis toxin pretreatment on the compound's effect on phagocytosis: Pertussis toxin pretreatment (5 minutes), FIGS. 5-6
Method: Log-phase T. thermophila cultures were grown in 2% protease peptone, at 25° C. The cells were washed and resuspended in 10 mM HEPES, pH 7.4 (250,000 cells/ml). Test compounds were mixed with diluted India ink (1:25, v:v) in order to visualize the newly formed phagosomes. At t=0, the drug/ink mixture was added to the Tetrahymena cells, and at t=10 minutes, […] samples of cell suspension were removed and fixed in 10% formaldehyde. At least about 100 random cells from each sample were then examined using a light microscope. Phagocytic activity was assessed by calculating the ratio of cells with food vacuoles compared to the cells with no food vacuoles.

[1] = test system: Heterocapsa pygmaea cells; assay: Injury response assay, physical injury (ultrasound-induced oxidative burst, H2O2 by DCFH-DA); assay type: cell-based; conditions: FIG. 16, read-out: inhibition of oxidative burst in injured cells
Method: The released reactive oxygen species were calibrated to H2O2, the least labile of the group. […] Specifically, by homogenization in a blender with 0.22 μm filtered seawater and 10 mM EDTA, and filtered through 4 layers of cheesecloth. Algal symbionts were pelleted out by centrifugation at 250×g and subsequently washed 10 times with 40 ml clean filtered seawater and pelleted by centrifugation at 750×g. The cells were further purified on Percoll® (Sigma, St. […] DNA staining using DAPI detected on epifluorescence microscopy was used to detect contaminants due to bacterial or coral cells. Cells isolated from live coral were diluted to a final concentration of about 5×10^5 cells/ml using a hemocytometer and maintained in filtered seawater. Heterocapsa pygmaea is grown in culture in F-1 media without silica. The cells were harvested in log growth phase and diluted to about 5×10^5 cells/ml using a hemocytometer. […] H2O2 concentration was calculated from a standard curve from DCFH-DA fluorescence (0.05 mM, redox sensitive probe, requires esterase (82 U) for detection of H2O2). Fluoresence was measured using a Perkin Elmer LS50B Fluorimeter, excitation 488 nm and emission 525 nm.

Tetrahymena cells = assay: Ca++ signaling assay (Calcium Orange fluorescence, intracellular calcium release); assay type: cell-based, Tetrahymena thermophila; conditions: for effect of Pertussis toxin pretreatment on the compound's calcium release activity: 0.5 μg/ml Pertussis toxin for 5 minutes prior to treatment
Method: Cell density was adjusted to 500,000 cells/ml using a 10 mM HEPES and 2.5 mM Probenecid buffer (pH 7.4) (Sigma, St. Louis, Mo.). The cells were loaded with 3 μM Calcium Orange AM ester (Molecular Probes, Eugene, Oreg.) for 90 minutes in the dark. The cells were washed, resuspended in buffer, and incubated for 1 hour to allow de-esterification of the fluorescent probe. The cells were washed twice and placed in a 2 ml quartz cuvet. Calcium release was measured by an LS50B Perkin Elmer Fluorimeter (Ex=549, Em=576) (Perkin Elmer, Wellesley, Mass.) for a 20 minute period. The cells were exposed to the test compounds for 20 minutes and then the fluorescence was recorded. In some experiments, the cells were pretreated with 0.5 μg/ml Pertussis toxin for 5 minutes. FIGS. 7A-7C show Tetrahymena cells loaded with Calcium Orange under fluorescence microscopy (X400). Upon calcium binding to calcium orange, the intensity increases thereby indicating the release of intracellular calcium. FIG. 7A is a control.

[2] = Cell-free hydrogen peroxide scavenging (direct antioxidant) assay; conditions: 50 μM
Method: A mixture of hydrogen peroxide and water without cells was mixed with the DCFH-DA dye and 82U of esterase as described above. To this mixture the drugs were added and results monitored on the fluorimeter.

Symbiodinium spp. cells = assay: Injury response assay, chemical injury (mastoparan) in Symbiodinium; assay type: cell-based; conditions: 10 μM, FIG. 14
Method: (§1) To determine the protective effect of pseudopterosin compounds against chemical injury, mastoparan was administered to test cells and released reactive oxygen species calibrated to H2O2 was measured as an indicator of injury.
(§2) Symbiodinium spp. cells were isolated, prepared and identified as described in Example 3. Heterocapsa pygmaea was grown in culture in F-1 media without silica. The cells were harvested in log growth phase and diluted to about 5×10^5 cells/ml using a hemocytometer. […] The oxidative burst was prevented or inhibited by about 71% by incubating the H. pygmaea cells with a mixture comprising 25 μM of pseudopterosin compounds for 1 hour prior to exposure to mastoparan.
(§3) H2O2 concentration was calculated from a standard curve from DCFH-DA fluorescence (0.05 mM, redox sensitive probe, requires esterase (82 U) for detection of H2O2). Fluorescence was measured using a Perkin Elmer LS50B Fluorimeter, excitation 488 nm and emission 525 nm.

H. pygmaea cells = assay: Injury response assay, chemical injury (mastoparan-induced oxidative burst); assay type: cell-based, Heterocapsa pygmaea; conditions: 10 μM, FIG. 14
Method: as §1, §2, §3

[Ca+2].[Cl-].[Cl-] [CaCl2]
effect on rate of phagosome formation / phagocytic activity (T. thermophila): increases the rate of phagocytic activity

c1ccc2c(c1)[I+]c1ccccc1-2 [DPI, Diphenylene iodonium chloride]
inhibition at 50 µM [1]: ~96%

CC(C)=C[C@H]1C[C@H](C)[C@H]2CC[C@H](C)c3c(O[C@@H]4OC[C@@H](O)[C@H](O)[C@H]4O)c(O)c(C)c1c32 [PsA, Pseudopterosin A]
effect of Pertussis toxin pretreatment on the compound's calcium release activity (Tetrahymena cells): Pertussis toxin blocks PsA activity
effect of mastoparan on PsA activity (Tetrahymena cells; FIG. 10A): Mastoparan does not inhibit PsA
effect of Verapamil or Gd3+ on the effects of PsA (intracellular calcium release and phagosome formation) (Tetrahymena cells; T. thermophila): not inhibited by Verapamil or Gd^3+
effect of suramin pretreatment on PsA activity (Tetrahymena cells; suramin pretreatment (5 minutes), FIG. 10B): blocks PsA activity
effect on rate of phagosome formation / phagocytic activity (T. thermophila): decreases the rate of phagosome formation in a dose dependent manner
effect of Pertussis toxin pretreatment on the compound's effect on phagocytosis (T. thermophila): completely blocks the effect of PsA on phagocytosis

COc1ccc2c(c1)CC[C@@H]1[C@@H]2CC[C@]2(C)[C@@H](NCCCCCCN3C(=O)C=CC3=O)CC[C@@H]12 [Pseudopterosin U73122]
effect of Pertussis toxin pretreatment on the compound's calcium release activity (Tetrahymena cells): Pertussis toxin does not inhibit U73122 activity
effect of Pertussis toxin pretreatment on the compound's effect on phagocytosis (T. thermophila): not blocked by Pertussis toxin pretreatment

O=C1O[C@H]([C@@H](O)CO)C(O)=C1O [ascorbic acid]
immediate reduction of the fluorescent signal in cell free system [2]: about 60%

mastoparan
effect of Pertussis toxin pretreatment on the compound's calcium release activity (Tetrahymena cells): inhibits the effects of mastoparan
effect of mastoparan on Symbiodinium spp. cells (Symbiodinium spp. cells): no effect
effect of mastoparan on oxidative burst in H. pygmaea (H. pygmaea cells): cause a large oxidative burst
